# Reference: publication PMC8151276, “An Integrated Approach toward NanoBRET Tracers for Analysis of GPCR Ligand Engagement” (Molecules, 2021)
# Target: T1, LTB4R (Homo sapiens, UniProt Q15722)
# T1 construct: purchased Promega (in-house HiBiT-GPCR construct library, NanoBRET)
# Test: NanoBRET screen HiBiT-LTB4R in HEK293
# Format: binding
# Protocol: Each tracer candidate was screened across the entire library of HiBiT-GPCR constructs using NanoBRET as the detection modality. As depicted in Figure 4A, the specificity of interactions was evaluated through decrease in BRET due to competitive displacement of a bound tracer by excess parental compound. Each tracer was analyzed for binding to each HiBiT-GPCR fusion in the absence and in the presence of competing parental compound. Briefly, HEK293 cells were transfected with HiBiT-GPCR constructs diluted into promoterless DNA to reduce expression and maximize translocation to the cell surface. Each tracer candidate was then screened at concentrations of 1 μM and 0.1 μM across cells expressing these fusions. Cells were treated for 1.5 h with tracer either alone or in the presence of 20 μM competing parental compound (i.e., control). BRET was measured upon addition of purified LgBiT and subsequent complementation with HiBiT genetically fused to a GPCR. The specificity of interactions was assessed through a decrease in BRET signal due to competitive displacement of the bound tracer. To further gauge the robustness of these interactions, the fold response over the control (i.e., BRETtracer/BRETcontrol) was calculated. We chose a 1.5-fold response, which translates to ≥7-fold signal over noise as the minimal threshold required to score an interaction as positive. […]. Below we highlight the screening results obtained for our exemplary fluorescent tracers based on Clozapine, Amitriptyline and AZD1283.
# HiBiT-GPCR DNA constructs were diluted in 10 mM Tris pH 8 to a final concentration of 0.01 μg/μL, arrayed in 96-well plates and stored at −20 °C. For transfection, HEK293 cells were suspended in Opti-MEM (without phenol red) supplemented with 2% fetal bovine serum (Seradigm) and 100 units/mL penicillin–streptomycin (Gibco) at a final concentration of 220,000 cells/mL and dispensed into white 96-well plates at 90 μL/well. Subsequent transfections and screens were carried using an Agilent Bravo Automated Liquid Handling Platform. First, the 96-well HiBiT DNA arrays were diluted 25-fold in Opti-MEM (without serum or phenol red) to a final concentration of 0.0004 μg/μL and 20 μL of the diluted DNAs were transferred into new 96-well plates. Next, promoterless carrier DNA (1 μg/μL) was diluted 25-fold (0.04 μg/μL) and then dispensed into the diluted arrays at 20 μL/well. Following brief mixing, Viafect transfection reagent (Promega) diluted 16-fold into Opti-MEM was dispensed into the plates at 40 μL/well. After mixing by pipetting, plates were incubated for 10 min on the pipetting station deck. The DNA-transfection reagent complexes were then added to plates containing cells. To facilitate the screen, 10 μL of DNA-transfection reagent complexes were added in duplicates to the top 4 and bottom 4 rows, resulting in two identical 48-well arrays per plate. Plates with transfected cells were incubated for 18–20 h at 37 °C/5% CO2. A screen of each tracer across the entire library using two different concentrations requires duplicate plates of transfected cells. Depending on the number of tracers being screened, transfections can be scaled up using the same ratios. The next day, for each tracer, four 20× screening solutions in tracer dilution buffer (Promega) were prepared: two duplicates at final concentration of 20 μM and two duplicates at a final concentration of 2 μM. A competing unmodified compound was added to one of each duplicate at a final concentration of 400 μM. The four resulting solutions were diluted 4-fold in Opti-MEM without serum or phenol red to generate 5× solutions (5 µM and 0.5 µM tracer +/− 100 μM competing compound). To screen the library, a BioTek MultiFlo FX liquid dispenser was used to dispense 22.5 µL of tracer solution to the top 4 rows and 22.5 µL tracer + competing compound solution to the 4 bottom rows. Plates were briefly mixed on an orbital shaker and incubated for 1.5 h at room temperature. […]
# T1 sequence (Q15722 whole entry): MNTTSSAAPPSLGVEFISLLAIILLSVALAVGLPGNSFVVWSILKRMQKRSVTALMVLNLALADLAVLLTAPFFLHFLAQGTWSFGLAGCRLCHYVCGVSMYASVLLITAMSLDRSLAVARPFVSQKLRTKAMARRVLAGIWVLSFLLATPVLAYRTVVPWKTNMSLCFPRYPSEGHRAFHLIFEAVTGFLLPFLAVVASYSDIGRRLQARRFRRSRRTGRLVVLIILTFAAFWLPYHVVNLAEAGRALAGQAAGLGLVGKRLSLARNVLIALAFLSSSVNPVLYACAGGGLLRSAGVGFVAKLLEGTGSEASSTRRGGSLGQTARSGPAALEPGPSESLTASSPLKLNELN
SMILES,"NanoBRET Fold Response (LTB4R, tracer 0.1μM)","NanoBRET Fold Response (LTB4R, tracer 1μM)",other results
CN1CCN(C2=Nc3cc(Cl)ccc3Nc3ccc(CNC(=O)CCOCCOCCOCCOCCNC(=O)CCc4ccc5n4[B-](F)(F)[N+]4=C(c6ccc[nH]6)C=CC4=C5)cc32)CC1 [Clozapine-b-2-NB590],–,–,"NanoBRET Fold Response (LTB4R, 0.1μM tracer): 1.04; NanoBRET Fold Response (LTB4R, 1μM tracer): 1.04"
CN(C)CCC=C1c2ccccc2CCc2ccc(C(=O)NCCNC(=O)CCOCCOCCOCCOCCNC(=O)CCc3ccc4n3[B-](F)(F)[N+]3=C(c5ccc[nH]5)C=CC3=C4)cc21 [Amitriptyline-b-2-NB590],–,–,"NanoBRET Fold Response (tracer at 1μM, listed as amitriptyline-b-2-NB590): 1.02"
CCOC(=O)c1cc(C#N)c(N2CCC(C(=O)NS(=O)(=O)Cc3ccccc3/C=C/C(=O)NCCNC(=O)CCc3ccc4n3[B-](F)(F)[N+]3=C(c5ccc[nH]5)C=CC3=C4)CC2)nc1C [AZD1283-1-NB590],–,–,"NanoBRET Fold Response (LTB4R, 0.1μM): 1.16; NanoBRET Fold Response (LTB4R, 1μM): 1.16"
CC(C)N(CC[C@H](c1ccccc1)c1cc(CCNC(=O)CCOCCOCCOCCOCCNC(=O)CCc2ccc3n2[B-](F)(F)[N+]2=C(c4ccc[nH]4)C=CC2=C3)ccc1O)C(C)C [Tolterodine-2-NB590],0.92,0.96,–
CC(C)N(CC[C@H](c1ccccc1)c1cc(CCNC(=O)c2ccc(CNC(=O)CCc3ccc4n3[B-](F)(F)[N+]3=C(c5ccc[nH]5)C=CC3=C4)cc2)ccc1O)C(C)C [Tolterodine-BZ-NB590],0.95,1.03,–
O=C(CCOCCOCCOCCOCCNC(=O)CCc1ccc2n1[B-](F)(F)[N+]1=C(c3ccc[nH]3)C=CC1=C2)NCCCN1CCN(C2=Nc3ccccc3Oc3ccc(Cl)cc32)CC1 [Loxapine-a-2-NB590],1.05,0.96,–
CN1CCN(C2=Nc3cc(Cl)ccc3N(CC(=O)NCCOCCOCCOCCOCCNC(=O)CCc3ccc4n3[B-](F)(F)[N+]3=C(c5ccc[nH]5)C=CC3=C4)c3ccccc32)CC1 [Clozapine-c-2-NB590],–,–,"NanoBRET Fold Response (LTB4R, 0.1μM tracer): 1.05; NanoBRET Fold Response (LTB4R, 1μM tracer): 0.95"
CN(C)CCC=C1c2ccccc2CCc2ccc(C(=O)NCCNC(=O)CCOCCOCCOCCOCCNC(=O)CCc3ccc4n3[B-](F)(F)[N+]3=C(c5ccc[nH]5)C=CC3=C4)cc21 [Amitriptyline-a-2-NB590],–,–,NanoBRET Fold Response (tracer at 0.1μM): 1.02; NanoBRET Fold Response (tracer at 1μM): 1.00
Cc1nc2n(c(=O)c1CCN1CCC(c3noc4cc(F)ccc34)CC1)CCCC2OC(=O)NCCOCCOCCOCCOCCNC(=O)CCc1ccc2n1[B-](F)(F)[N+]1=C(c3ccc[nH]3)C=CC1=C2 (stereo not drawn) [Risperidone-2-NB590],1.03,1.00,–
COc1ccc2[nH]c(-c3ccc(CNC(=O)CCOCCOCCOCCOCCNC(=O)CCc4ccc5n4[B-](F)(F)[N+]4=C(c6ccc[nH]6)C=CC4=C5)cc3)c(CCNC(C)=O)c2n1 [AzomelatoninICO9-2-NB590],–,–,NanoBRET Fold Response (0.1μM tracer): 1.07; NanoBRET Fold Response (1μM tracer): 0.99
COc1ccccc1N1CCN(CCCCN2C(=O)c3ccc(CNC(=O)CCOCCOCCOCCOCCNC(=O)CCc4ccc5n4[B-](F)(F)[N+]4=C(c6ccc[nH]6)C=CC4=C5)cc3C2=O)CC1 [NAN-190-2-NB590],–,0.96,–
O=C(CCc1ccc2n1[B-](F)(F)[N+]1=C(c3ccc[nH]3)C=CC1=C2)NCCOCCOCCNC(=O)OCCOCCN1CCN(C2=Nc3ccccc3Sc3ccccc32)CC1 [Quetiapine-a-2-NB590],1.27,1.40,–
O=C(CCOCCOCCOCCOCCNC(=O)CCc1ccc2n1[B-](F)(F)[N+]1=C(c3ccc[nH]3)C=CC1=C2)NCCCN1CCN(C2=Nc3cc(Cl)ccc3Nc3ccccc32)CC1 [Clozapine-a-2-NB590],–,–,"NanoBRET Fold Response (LTB4R, 0.1μM tracer): 1.05; NanoBRET Fold Response (LTB4R, 1μM tracer): 0.94"
N#CN=C(NCCCOc1cccc(CN2CCCCC2)c1)NCCNC(=O)CCOCCOCCOCCOCCNC(=O)CCc1ccc2n1[B-](F)(F)[N+]1=C(c3ccc[nH]3)C=CC1=C2 [Aminopotentidine-2-NB590],1.03,0.99,–
O=C(CCc1ccc2n1[B-](F)(F)[N+]1=C(c3ccc[nH]3)C=CC1=C2)NCc1ccc(C(=O)NCCOCCOCCNCC(O)COc2cccc3ccccc23)cc1 (stereo not drawn) [Propranolol-3-NB590],–,–,"NanoBRET Fold Response (LTB4R, 0.1μM): 0.97; NanoBRET Fold Response (LTB4R, 1μM): 1.02"
O=C(CCc1ccc2n1[B-](F)(F)[N+]1=C(c3ccc[nH]3)C=CC1=C2)NCc1ccc(C(=O)NCCOCCC(=O)N[C@@H]2CC[C@@]3(O)[C@H]4Cc5ccc(O)c6c5[C@@]3(CCN4CC3CC3)[C@H]2O6)cc1 [Naltrexone-3-NB590],0.68,1.06,–
COc1ccccc1N1CCN(CCCCN2C(=O)c3ccc(CNC(=O)CCOCCNC(=O)c4ccc(CNC(=O)CCc5ccc6n5[B-](F)(F)[N+]5=C(c7ccc[nH]7)C=CC5=C6)cc4)cc3C2=O)CC1 [NAN-190-3-NB590],1.02,1.09,–
Cc1cc2c(s1)Nc1ccccc1N=C2N1CCN(CCCNC(=O)CCOCCOCCOCCOCCNC(=O)CCc2ccc3n2[B-](F)(F)[N+]2=C(c4ccc[nH]4)C=CC2=C3)CC1 [Olanzapine-a-2-NB590],1.02,1.03,–
CCCn1c(=O)c2[nH]c(-c3ccc(OCC(=O)NCCNC(=O)CCOCCNC(=O)c4ccc(CNC(=O)CCc5ccc6n5[B-](F)(F)[N+]5=C(c7ccc[nH]7)C=CC5=C6)cc4)cc3)nc2n(CCC)c1=O [XAC-3-NB590],1.09,1.11,–
CN(CCC=C1c2ccccc2CCc2ccccc21)C(=O)CCOCCOCCOCCOCCNC(=O)CCc1ccc2n1[B-](F)(F)[N+]1=C(c3ccc[nH]3)C=CC1=C2 [Amitriptyline-e-2-NB590],–,–,NanoBRET Fold Response (tracer at 1μM): 1.03
COc1ccc2c(n1)c(CCNC(C)=O)cn2CCNC(=O)CCc1ccc2n1[B-](F)(F)[N+]1=C(c3ccc[nH]3)C=CC1=C2 [Azamelatonin-1-NB590],–,–,NanoBRET Fold Response (0.1μM tracer): 0.97; NanoBRET Fold Response (1μM tracer): 0.97
